The text below walks through data of US12421232B2, “Kinase inhibitor compounds and compositions and methods of use” (ICAHN SCHOOL OF MEDICINE AT MOUNT SINAI, priority 2018, dated 2025).

SMILES strings stand for the structures. Like-named read-outs stand apart in the source and are kept apart here.

What all share (test): KINOMEscan Assay (DiscoverX)
Format in all cases: binding
Holding throughout (conditions): read-out: % DMSO Ctrl

One assay concerns the target T1, FLT3(N841I) (Homo sapiens, UniProt P36888, N841I).
T1 construct: purchased DiscoverX
T1 sequence (P36888 27-993 N841I): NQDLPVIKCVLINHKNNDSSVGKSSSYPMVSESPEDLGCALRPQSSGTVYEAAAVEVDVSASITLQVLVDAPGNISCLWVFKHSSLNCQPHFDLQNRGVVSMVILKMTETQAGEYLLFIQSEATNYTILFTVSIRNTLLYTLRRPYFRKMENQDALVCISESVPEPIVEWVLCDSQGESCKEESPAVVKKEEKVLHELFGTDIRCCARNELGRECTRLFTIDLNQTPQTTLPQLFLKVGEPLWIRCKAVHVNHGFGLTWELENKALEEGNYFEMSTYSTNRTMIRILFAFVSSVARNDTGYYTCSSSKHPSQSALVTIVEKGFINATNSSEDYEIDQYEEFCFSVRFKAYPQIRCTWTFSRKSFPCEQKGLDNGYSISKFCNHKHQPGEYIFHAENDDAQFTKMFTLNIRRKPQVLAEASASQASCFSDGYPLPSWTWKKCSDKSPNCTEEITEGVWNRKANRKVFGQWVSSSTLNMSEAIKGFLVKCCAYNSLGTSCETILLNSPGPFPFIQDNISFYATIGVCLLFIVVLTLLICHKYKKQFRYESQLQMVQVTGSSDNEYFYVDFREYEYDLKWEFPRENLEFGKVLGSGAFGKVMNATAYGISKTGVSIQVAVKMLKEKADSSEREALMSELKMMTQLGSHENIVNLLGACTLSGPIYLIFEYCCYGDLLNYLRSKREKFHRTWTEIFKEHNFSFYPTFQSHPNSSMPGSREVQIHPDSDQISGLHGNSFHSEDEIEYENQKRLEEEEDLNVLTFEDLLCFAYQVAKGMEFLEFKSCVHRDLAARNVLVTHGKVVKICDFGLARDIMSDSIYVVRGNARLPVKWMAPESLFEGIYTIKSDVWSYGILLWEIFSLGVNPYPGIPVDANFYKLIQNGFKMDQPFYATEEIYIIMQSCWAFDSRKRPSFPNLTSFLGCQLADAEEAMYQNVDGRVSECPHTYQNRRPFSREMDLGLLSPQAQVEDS

The next assay has as its target T2, ROCK2 (Homo sapiens, UniProt O75116).
T2 construct: purchased DiscoverX

A further assay deals with T3, IRAK4 (Homo sapiens, UniProt Q9NWZ3).
T3 construct: purchased DiscoverX
T3 sequence (Q9NWZ3 1-460): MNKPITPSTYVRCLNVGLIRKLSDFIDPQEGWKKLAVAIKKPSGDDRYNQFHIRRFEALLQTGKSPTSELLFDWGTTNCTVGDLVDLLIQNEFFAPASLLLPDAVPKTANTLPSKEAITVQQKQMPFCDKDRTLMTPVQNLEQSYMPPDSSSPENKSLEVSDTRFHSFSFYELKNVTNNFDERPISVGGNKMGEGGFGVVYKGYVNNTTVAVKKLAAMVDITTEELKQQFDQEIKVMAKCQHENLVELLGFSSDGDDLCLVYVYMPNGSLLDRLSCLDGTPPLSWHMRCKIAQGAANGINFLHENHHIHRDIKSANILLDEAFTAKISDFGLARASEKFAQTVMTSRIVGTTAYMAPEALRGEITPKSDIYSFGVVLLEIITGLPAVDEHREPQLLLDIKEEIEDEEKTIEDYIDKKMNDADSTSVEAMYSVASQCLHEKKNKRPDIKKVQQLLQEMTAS

The next assay has as its target T4, HASPIN (Homo sapiens, UniProt Q8TF76).
T4 construct: purchased DiscoverX
T4 sequence (Q8TF76 1-798): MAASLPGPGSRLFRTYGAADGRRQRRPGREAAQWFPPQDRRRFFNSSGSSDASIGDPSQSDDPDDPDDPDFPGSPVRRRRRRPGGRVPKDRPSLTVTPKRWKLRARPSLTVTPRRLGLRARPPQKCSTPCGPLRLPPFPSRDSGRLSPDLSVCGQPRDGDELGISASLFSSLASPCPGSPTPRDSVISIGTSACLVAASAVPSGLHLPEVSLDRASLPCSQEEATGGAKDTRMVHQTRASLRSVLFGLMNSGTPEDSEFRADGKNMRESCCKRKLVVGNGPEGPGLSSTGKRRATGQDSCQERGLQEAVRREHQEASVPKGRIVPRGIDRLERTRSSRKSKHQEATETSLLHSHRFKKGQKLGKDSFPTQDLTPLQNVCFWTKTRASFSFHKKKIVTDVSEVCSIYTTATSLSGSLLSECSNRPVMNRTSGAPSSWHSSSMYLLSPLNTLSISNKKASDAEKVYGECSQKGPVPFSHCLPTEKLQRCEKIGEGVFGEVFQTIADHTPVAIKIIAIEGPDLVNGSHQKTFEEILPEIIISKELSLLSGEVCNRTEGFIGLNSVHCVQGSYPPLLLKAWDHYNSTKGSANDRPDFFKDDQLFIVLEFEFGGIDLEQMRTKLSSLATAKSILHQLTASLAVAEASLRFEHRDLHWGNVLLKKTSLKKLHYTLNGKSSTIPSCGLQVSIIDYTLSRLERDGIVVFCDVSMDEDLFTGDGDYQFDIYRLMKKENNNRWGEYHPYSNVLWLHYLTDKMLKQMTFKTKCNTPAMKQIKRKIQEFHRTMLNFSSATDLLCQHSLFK

T2 sequence (O75116 whole entry): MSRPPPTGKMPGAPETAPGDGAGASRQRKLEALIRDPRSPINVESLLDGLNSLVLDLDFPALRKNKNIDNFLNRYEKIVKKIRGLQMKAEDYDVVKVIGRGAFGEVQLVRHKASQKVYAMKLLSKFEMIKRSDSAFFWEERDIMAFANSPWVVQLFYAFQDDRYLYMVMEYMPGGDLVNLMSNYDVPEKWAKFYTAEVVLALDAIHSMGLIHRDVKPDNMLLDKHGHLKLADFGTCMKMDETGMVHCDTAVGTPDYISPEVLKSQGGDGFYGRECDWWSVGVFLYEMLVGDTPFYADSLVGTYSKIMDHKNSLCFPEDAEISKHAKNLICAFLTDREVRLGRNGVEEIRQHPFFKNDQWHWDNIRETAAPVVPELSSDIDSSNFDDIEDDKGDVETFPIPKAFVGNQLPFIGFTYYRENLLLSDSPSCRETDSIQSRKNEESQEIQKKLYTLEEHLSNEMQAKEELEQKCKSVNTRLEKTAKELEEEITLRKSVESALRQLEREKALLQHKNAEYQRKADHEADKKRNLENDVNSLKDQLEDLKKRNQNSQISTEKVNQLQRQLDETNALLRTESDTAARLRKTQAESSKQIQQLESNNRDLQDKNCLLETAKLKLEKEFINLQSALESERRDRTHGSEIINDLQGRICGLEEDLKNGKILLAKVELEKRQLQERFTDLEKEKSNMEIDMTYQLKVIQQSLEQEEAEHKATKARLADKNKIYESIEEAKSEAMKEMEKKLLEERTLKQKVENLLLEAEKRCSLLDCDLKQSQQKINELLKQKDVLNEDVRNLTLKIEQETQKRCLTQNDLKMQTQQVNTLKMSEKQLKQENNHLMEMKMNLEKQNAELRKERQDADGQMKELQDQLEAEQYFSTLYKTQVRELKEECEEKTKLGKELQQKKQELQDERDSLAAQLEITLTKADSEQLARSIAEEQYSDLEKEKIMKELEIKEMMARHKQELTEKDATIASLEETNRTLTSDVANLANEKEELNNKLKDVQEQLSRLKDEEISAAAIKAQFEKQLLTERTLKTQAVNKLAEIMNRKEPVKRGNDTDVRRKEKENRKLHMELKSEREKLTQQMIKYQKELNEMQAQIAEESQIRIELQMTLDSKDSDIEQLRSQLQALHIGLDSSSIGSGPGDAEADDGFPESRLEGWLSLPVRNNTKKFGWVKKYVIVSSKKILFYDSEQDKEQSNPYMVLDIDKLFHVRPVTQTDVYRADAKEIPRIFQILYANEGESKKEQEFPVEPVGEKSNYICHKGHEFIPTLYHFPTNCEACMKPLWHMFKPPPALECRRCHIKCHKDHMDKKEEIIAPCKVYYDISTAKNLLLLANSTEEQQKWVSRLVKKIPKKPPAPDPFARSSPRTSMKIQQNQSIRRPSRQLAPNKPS

Take `COc1ccc2c(c1)[nH]c1c(C)nc(CO)cc12` [Compound 2-8, (1-Methyl-7-methoxy-9H-pyrido[3,4-b]indol-3-yl)methanol]: the remaining binding at 10 µM at FLT3(N841I) (FLT3(N841I) mutant, 10 μM) stood at 74%; on ROCK2 (ROCK2, 10 μM), 88%; at IRAK4 (IRAK4, 10 μM), 70%.

`COc1ccc2c3ccnc(C)c3n(CCCc3noc(N)n3)c2c1` [Compound 20-13, 3-(3-(7-Methoxy-1-methyl-β-carbolin-9-yl)propyl)-5-amino-1,2,4-oxadiazole]: the remaining binding at 10 µM at FLT3(N841I) was determined as 78%; at ROCK2, 86%; at HASPIN, 0.35%; on IRAK4, 90%.

For the compound `C#CCn1c2cc(OC)ccc2c2ccnc(C)c21` [Compound 20-23a, 3-(7-Methoxy-1-methyl-β-carbolin-9-yl)-propan-1-yne], the remaining binding at 10 µM worked out at 41% on FLT3(N841I), 16% on ROCK2, 1.7% at HASPIN and 6.4% on IRAK4.

In the case of `COc1ccc2c(c1)[nH]c1c(C)nccc12` [Harmine, reference compound], at HASPIN, the remaining binding at 10 µM was found to be 2%.
